{"source": "patent US20260216115A1", "about": "“TRETINOIN-CONTAINING COMPOSITION, PREPARATION METHOD AND USE THEREOF” (NANJING INDETEK LABORATORY CO., LTD., priority 2022, published 2026)", "key": {"[1]": {"assay": "Complex formation at different molar ratios, state at room temperature", "type": "physicochemical", "experimental": "Referring to the preparation process in 1.2.1, complexes were prepared using tretinoin and diethanolamine at different ratios (as shown in the table below).\nReferring to the preparation process in 1.2 in Example 1, diethanolamine was replaced with triethanolamine, and complexes were prepared using tretinoin and triethanolamine at different ratios (as shown in the table below)."}, "[2]": {"assay": "Anti-solvent addition test", "type": "physicochemical", "details": "room temperature, about 4 days", "experimental": "The corresponding volume of good solvent was added to an appropriate amount of 2 [DEA][RA] to obtain a clear solution. If there were two corresponding anti-solvents, the clear solution was divided into two parts. At room temperature (about 22° C.), the anti-solvent was slowly added to the clear solution with stirring until solid precipitation was observed (the maximum volume of anti-solvent added was 1.5 mL). If the solid precipitation was observed, the addition of anti-solvent was stopped. After about 4 days of stirring at room temperature, a clear solution was obtained or oiling-out phenomenon was observed, without solid form substance obtained."}, "[3]": {"assay": "Dynamic moisture sorption (DVS) with PLM before and after", "type": "physicochemical"}, "[4]": {"assay": "Water solubility/water dilution stability of tretinoin complexes", "type": "physicochemical", "details": "water added until the solution appeared turbid", "experimental": "Weighing was performed, and calculation was performed to obtain the limiting water content of the complexes."}, "[5]": {"assay": "Liquid nitrogen freezing test", "type": "physicochemical", "details": "frozen about 1 min in liquid nitrogen, rewarmed to room temperature (about 22° C.)", "experimental": "After freezing for about 1 min, the sample was taken out, yielding a reddish-brown transparent solid (hard and brittle). […] The experimental process was as follows: freezing with the spoon, fragmenting, and then melting"}, "[6]": {"assay": "Differential scanning calorimetry (DSC, mDSC)", "type": "physicochemical"}, "[7]": {"assay": "Compatibility of gel matrix and complex", "type": "physicochemical", "details": "0.17% (0.1% in terms of RA) added to the Carbopol 980 gel matrix"}, "[8]": {"assay": "Crystallization induction: cooling test", "type": "physicochemical", "details": "3 days", "experimental": "About 40 mg of 2 [DEA][RA] was dissolved in the respective solvent at 50° C., a clear solution was obtained and divided equally in 2 groups. After cooling according to the respective procedure, and equilibrating at low temperature for 3 days, no solid form substance was obtained."}, "[9]": {"assay": "Solubility of the complex in different medium systems (oily mediums)", "type": "physicochemical", "description": "6.1 Study on Solubility of the Tretinoin-Alcoholamine Compound Complex in Different Medium Systems"}, "[10]": {"details": "2020 edition of Chinese Pharmacopoeia (Part II); cited from earlier work"}, "[11]": {"details": "tretinoin-diethanolamine complexes, molar ratio [DEA]:[RA] 2:1 to 10:1"}, "[12]": {"details": "tretinoin-triethanolamine complexes, molar ratio TEA:RA 7:1 to 10:1"}}}
{"compound": "CC1=C(/C=C/C(C)=C/C=C/C(C)=C/C(=O)O)C(C)(C)CCC1.OCCNCCO.OCCNCCO.OCCNCCO.OCCNCCO.OCCNCCO.OCCNCCO.OCCNCCO", "note": "[7[DEA][RA]]", "values": [{"measurement": "State at room temperature", "setting": "[1]; [11]", "result": "Reddish-brown clear liquid"}]}
{"compound": "CC1=C(/C=C/C(C)=C/C=C/C(C)=C/C(=O)O)C(C)(C)CCC1.OCCN(CCO)CCO.OCCN(CCO)CCO.OCCN(CCO)CCO.OCCN(CCO)CCO.OCCN(CCO)CCO.OCCN(CCO)CCO.OCCN(CCO)CCO.OCCN(CCO)CCO", "note": "[8[TEA][RA]]", "values": [{"measurement": "State at room temperature", "setting": "[1]; [12]", "result": "Reddish-brown clear liquid"}, {"measurement": "State at room temperature", "setting": "[1]; tretinoin-triethanolamine complexes, molar ratio TEA:RA 7:1 to 10:1, listed as 8 [TEA][RA]", "result": "reddish-brown transparent liquid"}]}
{"compound": "CC1=C(/C=C/C(C)=C/C=C/C(C)=C/C(=O)O)C(C)(C)CCC1.OCCNCCO.OCCNCCO.OCCNCCO.OCCNCCO.OCCNCCO.OCCNCCO.OCCNCCO.OCCNCCO", "note": "[8[DEA][RA]]", "values": [{"measurement": "State at room temperature", "setting": "[1]; [11]", "result": "Reddish-brown clear liquid"}]}
{"compound": "CC1=C(/C=C/C(C)=C/C=C/C(C)=C/C(=O)O)C(C)(C)CCC1.OCCNCCO.OCCNCCO", "note": "[2[DEA][RA]]", "values": [{"measurement": "Anti-solvent addition test results", "setting": "[2]; test-A, good solvent DMSO, anti-solvent ACN 1.5 mL", "result": "Clear"}, {"measurement": "Anti-solvent addition test results", "setting": "[2]; test-B1, good solvent n-propanol, anti-solvent ACN 1.5 mL", "result": "Clear"}, {"measurement": "Anti-solvent addition test results", "setting": "[2]; test-B2, good solvent n-propanol, anti-solvent n-heptane 1.5 mL", "result": "Clear"}, {"measurement": "Anti-solvent addition test results", "setting": "[2]; test-D1, good solvent THF, anti-solvent ACN 1.5 mL", "result": "Clear"}, {"measurement": "Anti-solvent addition test results", "setting": "[2]; test-E1, good solvent IPA, anti-solvent ACN 1.5 mL", "result": "Clear"}, {"measurement": "Hygroscopicity (DVS)", "setting": "[3]; 25° C., 0% RH-95% RH-0% RH", "result": "certain hygroscopic properties"}, {"measurement": "Crystalline particles by PLM before and after DVS", "setting": "[3]; room temperature", "result": "no crystalline particles"}, {"measurement": "Maximum water content (water dilution stability)", "setting": "[4]", "result": 91.4, "unit": "%"}, {"measurement": "State at room temperature", "setting": "[1]; [11]", "result": "Reddish-brown clear liquid"}, {"measurement": "Liquid nitrogen freezing test result upon rewarming", "setting": "[5]", "result": "the sample melted immediately"}, {"measurement": "mDSC glass transition temperature", "setting": "[6]; −25° C. to 25° C.", "result": "no glass transition temperature is observed"}, {"measurement": "DSC exothermic or endothermic signals", "setting": "[6]; −25° C. to 40° C.", "result": "no exothermic or endothermic signals"}, {"measurement": "Compatibility of complex with gel matrix", "setting": "[7]", "result": "precipitation of yellow solids"}, {"measurement": "Cooling test results", "setting": "[8]; test-A1, n-propanol, 50° C.→5° C.", "result": "Clear"}, {"measurement": "Cooling test results", "setting": "[8]; test-A2, n-propanol, 50° C.→−20° C.", "result": "Clear"}, {"measurement": "Cooling test results", "setting": "[8]; test-C1, 1,4-dioxane, 50° C.→5° C.", "result": "Clear"}, {"measurement": "Cooling test results", "setting": "[8]; test-C2, 1,4-dioxane, 50° C.→−20° C., *melting immediately upon taking out", "result": "Frozen, yellow opaque*"}, {"measurement": "Cooling test results", "setting": "[8]; test-D1, DMSO, 50° C.→5° C.", "result": "Clear"}, {"measurement": "Solubility in oily medium", "setting": "[9]; Isopropyl myristate", "result": "Insoluble"}, {"measurement": "Solubility in oily medium", "setting": "[9]; Laurocapram", "result": "Insoluble"}, {"measurement": "Solubility in oily medium", "setting": "[9]; Medium-chain triglyceride", "result": "Insoluble"}, {"measurement": "Solubility in oily medium", "setting": "[9]; Soybean oil", "result": "Insoluble"}]}
{"compound": "CC1=C(/C=C/C(C)=C/C=C/C(C)=C/C(=O)O)C(C)(C)CCC1.OCCN(CCO)CCO.OCCN(CCO)CCO.OCCN(CCO)CCO.OCCN(CCO)CCO.OCCN(CCO)CCO.OCCN(CCO)CCO.OCCN(CCO)CCO.OCCN(CCO)CCO.OCCN(CCO)CCO", "note": "[9[TEA][RA]]", "values": [{"measurement": "State at room temperature", "setting": "[1]; [12]", "result": "Reddish-brown clear liquid"}]}
{"compound": "CC1=C(/C=C/C(C)=C/C=C/C(C)=C/C(=O)O)C(C)(C)CCC1.OCCNCCO.OCCNCCO.OCCNCCO.OCCNCCO.OCCNCCO.OCCNCCO", "note": "[6[DEA][RA]]", "values": [{"measurement": "State at room temperature", "setting": "[1]; [11]", "result": "Reddish-brown clear liquid"}]}
{"compound": "CC1=C(/C=C/C(C)=C/C=C/C(C)=C/C(=O)O)C(C)(C)CCC1.CC1=C(/C=C/C(C)=C/C=C/C(C)=C/C(=O)O)C(C)(C)CCC1.OCCNCCO.OCCNCCO.OCCNCCO.OCCNCCO.OCCNCCO", "note": "[2.5[DEA][RA]]", "values": [{"measurement": "Maximum water content (water dilution stability)", "setting": "[4]", "result": 92.5, "unit": "%"}, {"measurement": "State at room temperature", "setting": "[1]; [11]", "result": "Reddish-brown clear liquid"}]}
{"compound": "CC1=C(/C=C/C(C)=C/C=C/C(C)=C/C(=O)O)C(C)(C)CCC1", "note": "[tretinoin]", "values": [{"measurement": "Solubility in water", "setting": "[10]", "result": "extremely insoluble in water"}]}
{"compound": "CC1=C(/C=C/C(C)=C/C=C/C(C)=C/C(=O)O)C(C)(C)CCC1.OCCN(CCO)CCO.OCCN(CCO)CCO.OCCN(CCO)CCO.OCCN(CCO)CCO.OCCN(CCO)CCO.OCCN(CCO)CCO.OCCN(CCO)CCO.OCCN(CCO)CCO.OCCN(CCO)CCO.OCCN(CCO)CCO", "note": "[10[TEA][RA]]", "values": [{"measurement": "State at room temperature", "setting": "[1]; [12]", "result": "Reddish-brown clear liquid"}]}
{"compound": "CC1=C(/C=C/C(C)=C/C=C/C(C)=C/C(=O)O)C(C)(C)CCC1.OCCNCCO.OCCNCCO.OCCNCCO.OCCNCCO", "note": "[4[DEA][RA]]", "values": [{"measurement": "Maximum water content (water dilution stability)", "setting": "[4]", "result": 94.1, "unit": "%"}, {"measurement": "State at room temperature", "setting": "[1]; [11]", "result": "Reddish-brown clear liquid"}]}
{"compound": "CC1=C(/C=C/C(C)=C/C=C/C(C)=C/C(=O)O)C(C)(C)CCC1.OCCNCCO.OCCNCCO.OCCNCCO.OCCNCCO.OCCNCCO", "note": "[5[DEA][RA]]", "values": [{"measurement": "State at room temperature", "setting": "[1]; [11]", "result": "Reddish-brown clear liquid"}]}
{"compound": "CC1=C(/C=C/C(C)=C/C=C/C(C)=C/C(=O)O)C(C)(C)CCC1.OCCNCCO.OCCNCCO.OCCNCCO.OCCNCCO.OCCNCCO.OCCNCCO.OCCNCCO.OCCNCCO.OCCNCCO.OCCNCCO", "note": "[10[DEA][RA]]", "values": [{"measurement": "State at room temperature", "setting": "[1]; [11]", "result": "Reddish-brown clear liquid"}]}
{"compound": "CC1=C(/C=C/C(C)=C/C=C/C(C)=C/C(=O)O)C(C)(C)CCC1.OCCNCCO.OCCNCCO.OCCNCCO.OCCNCCO.OCCNCCO.OCCNCCO.OCCNCCO.OCCNCCO.OCCNCCO", "note": "[9[DEA][RA]]", "values": [{"measurement": "State at room temperature", "setting": "[1]; [11]", "result": "Reddish-brown clear liquid"}]}
{"compound": "CC1=C(/C=C/C(C)=C/C=C/C(C)=C/C(=O)O)C(C)(C)CCC1.OCCNCCO.OCCNCCO.OCCNCCO", "note": "[3[DEA][RA]]", "values": [{"measurement": "Maximum water content (water dilution stability)", "setting": "[4]", "result": 93.7, "unit": "%"}, {"measurement": "State at room temperature", "setting": "[1]; [11]", "result": "Reddish-brown clear liquid"}]}
